Measurements published in patent US20190086390A1, “INDIRECT ASSESSMENT OF INSULIN RELEASE IN A CELL” (Board of Supervisors of Louisiana State University and …, priority 2016, published 2019).

Columns and labels:
Format in all cases: cell-based, rat
[1] = test system: 832/13 cells; assay: Nitrite accumulation in culture media, Griess assay; details: IL-1β
Experimental: (§1) Nitrite in the cell culture media was measured as an index of NO production using the Griess assay kit (Promega, Madison, Wis.), whereas cellular reduction of the 3-(4,5-dimethylthiazol-2-yl)-5-(3-carboxymethoxyphenyl)-2-(4-sulfophe-nyl)-2H-tetrazohum, inner salt (MTS) dye was determined using the MTS 1 solution kit (Promega) according to the manufacturer's protocol.

[2] = test system: 832/13 cells; assay: Nitric oxide by EPR spectroscopy with (MGD)2Fe2+ spin trap; details: 1 ng/ml IL-1β 18 h
Experimental: The spin trap Af-methyl-d-glucamine dithiocarbamate-iron complex [(MGD)2-Fe^2+] was prepared fresh in each experiment by making stock solutions of 500 mM MGD and 100 mM Fe^2+ (from FeS04.7 H20) in ultrapure water under anaerobic conditions. A final concentration of 25 mM MGD and 5 mM Fe^2+ was introduced onto cells in culture using serum-free media with a 30-min incubation period. Supernatants were then collected for the measurements of the (MGD)2-iron-NO complex. All electron paramagnetic resonance (EPR) measurements were carried out in a quartz flat cell at room temperature. Samples were transferred directly into the flat cell, which was then placed into the cavity of a Bruker EMX Plus spectroscope. Typical instrumental conditions were as follows: 20 mW of microwave power, 5.0-G modulation amplitude, 1×10^5 gain, 0.163-s time constant, and 80-G scan range. Quantitation was carried out by measuring and comparing the first peak heights on the spectra.

[3] = test system: Nkx6.1; assay: Nkx6.1 protein abundance, immunoblot of cytosolic and nuclear fractions; details: 832/13 cells, IL-1β 4 h
Experimental: (§2) Cell lysis and extraction of cytoplasmic and nuclear protein fractions was performed using the NE-PER kit (Thermo Fisher Scientific) according to the manufacturer's directions. The protein concentration of the lysate was determined using the bicinchoninic acid assay (Thermo Fisher Scientific), using BSA as the standard. SDS-PAGE, transfer to polyvi-nylidene difluoride membranes, membrane blocking before antibody incubation, and downstream subsequent detection using a ChemiDoc imaging system (Bio-Rad) have been described previously (16). Antibodies detecting β-actin or tubulin were used as loading controls. Antibodies used were from the following sources: iNOS (Santa Cruz Biotechnology), (3-actin (Cell Signaling Technology), Ikα: (Santa Cruz Biotechnology), tubulin (Cell Signaling Technology), and Pdx-1 (Cell Signaling Technology). The antibody recognizing Nkx6.1 has been described (34). Immunoblot images were quantified using Image Lab software (Bio-Rad).

[4] = test system: Pdx-1; assay: Pdx-1 protein abundance, immunoblot; details: 832/13 cells, IL-1β 4 h
Experimental: as §2

[5] = test system: 832/13 cells; assay: Tritiated thymidine incorporation into DNA (proliferation); details: IL-1β 18 h
Experimental: 832/13 cells were grown in 12-well plates and treated as indicated. Glucose-stimulated insulin secretion (GSIS) assays were performed as described previously (29). Insulin secretion by cell lines into the media was measured using either the High Range Rat Insulin ELISA kit (Mercodia, Uppsala, Sweden) or by rat islets using the insulin radioimmunoassay (Siemens, Malvern, Pa.) according to the company directions. In addition, cells were lysed using M-PER lysis reagent (Thermo Fisher Scientific) to quantify total intracellular protein content via BCA assay (Thermo Fisher Scientific). Insulin secretion data were normalized to total protein to account for any differences in cell number between treatment groups. Incorporation of tritiated thymidine into DNA as a cellular index of proliferation was carried out as described (45).

[6] = test system: 832/13 cells; assay: MTS dye reduction assay; details: 1 ng/ml IL-1β, 18 h
Experimental: as §1

[7] = test system: 832/13 cells; assay: Oxygen consumption rate (Seahorse XF24); details: 1 ng/ml IL-1β, 18 h
Experimental: Oxygen consumption rates (OCR) were measured using the XF^24 Extracellular Flux Analyzer (Seahorse Bioscience, Chicopee, Mass.). 832/13 cells were grown on cell culture plates for 2 days prior to OCR assays being run. Cells were treated with vehicle, 1 ng/ml IL-β, 1 mM I-NMMA, or both IL-1β (1 ng/ml) plus I-NMMA (1 mM) for 18 h prior to OCR being measured. The oxygen consumption rate was measured over a 2-h period. Data represent the calculated average area under the curve from six wells per treatment group over multiple independent experiments.

[8] = test system: 832/13 cells; assay: Live cell calcium imaging, glucose-induced calcium response (Calcium Green)
Experimental: 832/13 cells were plated into six-well plates containing poly-d-lysine-coated coverslips (Neuvitro, Vancouver, Wash.). At 50% confluence, cells were treated for 18 h with one of four experimental groups: 1 ng/ml […] alone, 1 mM I-NMMA alone, IL-1β+ I-NMMA, or normal growth media. Immediately prior to imaging, cells were preloaded with Calcium Green 1 AM (CG, C3012; Life Technologies) by transferring coverslips to a solution of 10|×M CG in 20% Pluronic F127 in DMSO (Life Technologies) made up in carbogenated (95% 02-5% C02) normal Krebs. The recipe for normal Krebs solution was (in mM) 124 NaCl, 25 NaHC03, 2 glucose, 3 KC1, 2 CaCl2, 1.5 NaH2P04, and 1 MgS04-7H20, which corrected to pH 7.4 with HCl. After incubation in the CG solution for 30 min, coverslips were transferred to carbogenated normal Krebs at 29° C.
Coverslips were transferred to a recording chamber on a fixed stage Zeiss Axioskop2 microscope equipped with a Perkin Elmer Ultra-view/Yokogawa C10 spinning disk laser confocal illuminator. Cells were illuminated with the 488 nm laser; CG-calcium fluorescence signals were collected at 509 nm. Cells were visualized with a X40 water immersion objective. Images were collected with a Hammamatsu Ocra-ER charge-coupled device camera. The confocal system, including image collection, was controlled by Perkin-Elmer Improvision software.
Cells on coverslips were constantly perfused with normal Krebs solution at 29° C. at a rate of 3 ml/min. After 10 min, the perfusion solution was switched to one containing 12 mM glucose and proportionally less sodium chloride to maintain osmolality. The 12 mM glucose challenge was applied for 5 min, followed by a 5 min washout period. Images of CG-labeled cells were collected continuously during the challenge period at a rate of 20/min, with each frame taking 1 s. Images were collected as TIFF stacks and processed using Nikon Elements AR software. Individual cells in the field were designated as regions of interest (ROI), and their fluorescence signal over time was captured. Background fluorescence was subtracted from the fluorescence signal of individual ROIs. The relative changes in cytoplasmic calcium in the cells were expressed as changes in fluorescence [(AF/F) %], where F is the intensity of the baseline fluorescence signal before stimulation and AF is the difference between the peak fluorescence intensity and the baseline signal. Therefore, magnitude of response was normalized for each individual ROI.

[9] = pretreated 18 h with IL-1β alone, 12 mM glucose

## IL-1β: proinflammatory cytokine purchased from Thermo Fisher Scientific, used at 1 ng/ml
[1]; 6 h
  increase in nitrite accrual: 5.5 fold
[1]; time not given, associated with 54% diminution in GSIS
  increase in nitrite: 13 fold
[2]
  nitric oxide production in response to IL-1β: robust production of nitric oxide
[3]
  decrease in Nkx6.1 abundance: 47%
[4]
  amount of Pdx-1 protein: unchanged
[5]
  ability to incorporate thymidine into DNA: reduced markedly
[6]
  decrease in reduction of the MTS dye: 38%
[7]
  decrease in cellular oxygen consumption rate: 25%
[8]; [9]
  average response magnitude (change in fluorescence): 20%
  cells responding to the glucose challenge: 61%
[8]; pretreated with IL-1β alone
  reduction of responses relative to control group: 39%
